In patent US20240034761A1, “REGENERATION OF MAMMALIAN TISSUES USING SYNTHETIC IMMODULINS” (priority 2022, published 2024):
Marks after values point to notes of the source that are not given here. Blank lines part the entries; values can stand above or below the molecule they belong to. Square brackets hold non-standard residues; d marks the D form. Ends that are not written are not given here. Peptide text beside a SMILES is read from it.

Key:
[1] = system: THP1-Dual monocyte reporter cell line; assay: THP1-Dual myeloid cell differentiation assay (PMA protocol); assay type: cell-based, human; settings: PMA 24 h, then peptide 0.33 uM or 0.66 uM 24 h; for CD169+ (AU) / Clec12A(AU): relative to immX3AVD = 100; for CCL22: culture supernatant
Description: (§1) Mammalian cell differentiation assays employed the THP1-Dual monocyte reporter cell line (Invivogen Inc, San Diego, CA) seeded at 2×10e5 cells per well in 96-well plates and cultured at 37 degrees C. in RPMI-1640 growth medium plus 10% fetal bovine serum and 1% penicillin/streptomycin. Cells were subsequently treated for 24 hours with 100 ng/ml Phorbol 12-myristate 13-acetate (PMA protocol; Cayman Chemical Company, Ann Arbor, MI). Peptide (0.33 uM or 0.66 uM, as indicated) was then added, and incubation continued for an additional 24 hours. Culture supernatants were assayed for CCL22. Plates with adherent cells were washed with PBS and assayed for immunoreactivity of surface markers such as CD169, Clec9a or Clec12a using fuorescent tag- or biotin-labeled anti-human antibodies purchased from Miltenyi Biotec (Auburn, CA) and the secondary detection reagent recommended by the manufacturer.

[2] = Plate binding of FITC-labelled heparin to immobilised biotinylated peptides; settings: 400 ng peptide/well, 1 ug FITC-heparin, PBS; normalized to immX3 peptide binding = 100
Description: (§2) Effects of pH, PIP2 and size classes: Streptavidin-coated 96-well plates (G-Biosciences, St. Louis, MO) were pre-loaded with biotinylated peptides [see Example 1] at 400 ng/well, at room temperature for 60 minutes. The plate was washed with PBS buffer and then 1 ug FITC-labelled heparin or hyaluronic acid (FITC-HMW-HA) in 100 uL PBS buffer was added per well (all tests done in quadruplicate). Incubation proceeded for 90 minutes at room temperature, followed by two PBS washes. The plate was read in a standard laboratory fluorometer (488/525 nm exitation/[…]) and the counts normalized for immX3 peptide binding=100. Values statistically above background are shown in bold font. **p<0.05 versus immX3AVD.

[3] = PIP-binding membrane assay (Membrane Lipid Strips); parameters: key: —: −−− no binding; +++ strong binding; settings: 400 ng peptide
Description: N-terminally biotinylated versions of the peptides listed below were used in various assays listed in the examples. For the two types of phosphatidylinositon phosphate (PIP)-binding assays, imm1-imm6 peptides were used.
In the PIP-binding membrane assay, 400 ng of each peptide was bound to Membrane Lipid Strips (Catalog # P-6002, Echelon Biosciences, Salt Lake City, UT) and developed according to the manufacturer's instructions. Binding to PIPs was as follows (−−− no binding; +++ strong binding): […]

[4] = Plate binding of FITC-labelled hyaluronic acid to immobilised biotinylated peptides; settings: 400 ng peptide/well, 1 ug FITC-HMW-HA, PBS; normalized to immX3 peptide binding = 100
Description: as §2

[5] = system: HFF-1 human fibroblast cell line; assay: Collagen stimulating activity in HFF-1 dermal fibroblasts (Collagen-1 ELISA); assay type: cell-based; settings: peptide 2 uM, 72 hour; control (buffer) set to 100
Description: Immodulin peptides have potential untility in the field of cosmetics. HFF-1 human fibroblast cell line was obtained from the American Type Culture Collection (ATCC). Cells were grown in a T-75 flask in DMEM Medium containing 10% fetal bovine serum and penicillin-streptomycin at 37° C. in a humidified, 5% CO2 incubator. Cells ([…], 2,000 cells/well) were plated in a 96-well plate and incubated overnight at 37° C. in a humidified, 5% CO2 incubator. Next day, […] of compounds were added (quadruplicate wells). After 72 hour incubation with the compound, supernatants were collected for Collagen-1 ELISA assay and cell viability was measured in a luminometer after the addition of […] CellTiterGlo reagent (Promega Inc, Madison, WI) as recommended by the manufacturer. Collagen stimulating activity of immodulin peptides in HFF-1 dermal fibroblasts: Peptides were added to cells at 2 uM. Collagen-1A1 (COL1) immunoreactivity was measured in the supernatants of cultured cells by ELISA using a rabbit monoclonal anti-COL1 primary antibody (Abcam, Cambridge, MA). Control (buffer) value of immunoreactivity was set to 100.

[6] = Second binding experiment: FITC-HMW-HA binding with holotransferrin, pH and cold competitors; parameters: key to FITC-HMW-HA binding, +cold LMW-HA / FITC-HMW-HA binding, +cold HMW-HA: fluorescence counts normalized to peptide binding control = 100; settings: holotransferrin 10 ug/well; for FITC-HMW-HA binding, +cold HMW-HA: HMW-HA 10 ug/well; for FITC-HMW-HA binding, +cold LMW-HA: LMW-HA hexamer 10 ug/well; for FITC-HMW-HA binding, +cold PIP2: excess PIP2 500 ng/well
Description: as §2
A second binding experiment was done as above, but using either 6 mM sodium phosphate buffer pH 7.4 or sodium citrate buffer pH 5.2 in the presence of FITC-HMW-HA (1.5 ug/well), holotransferrin (10 ug/well) and excess PIP2 (500 ng/well), LMW-HA (hexamer; 10 ug/well) or HMW-HA (10 ug/well). **p<0.05 versus peptide binding control (=100);

[7] = system: Primary human T-cells pre-selected for recognizing GAD65 peptide antigen; assay: GAD65-specific primary T-cell differentiation on peptide-treated THP1-Dual cells; assay type: cell-based; settings: peptide 0.66 uM, GAD65 1 ug/ml; for FoxP3 (AU): cell extracts, immX3AVD = 100
Description: as §1
Another non-myeloid lineage was also tested. Primary human T-cells pre-selected for recognizing GAD65 peptide antigen, and the peptide antigen itself were purchased from Cellero LLC (Memphis, TN). THP1-Dual cells were treated with both GAD65 peptide antigen (1 ug/ml) and immodulin peptide (0.66 uM) using the protocol described in Example 2. After completion of the myeloid cell differentiation step (24 hours), supernatants were collected and 100,000 primary T-cells were added to each well in RPMI-1640 medium (100 uL per well). Plates were incubated for an additional 96 hours and cell extracts were prepared using CellLytic-M reagent (Sigma Chemical Co., St Louis, MO). Supernatants were assayed for CCL22, IL-10 and TGFbeta, and cell extracts assayed for FoxP3, all by ELISA using reagents from R&D Systems, Minneapolis, MN. The results are shown in the table below (**p<0.05 vs immX3AVD, set to=100): […]

[8] = system: C2C12 myoblastic cell line; assay: C2C12 myoblast differentiation, creatine kinase; assay type: cell-based; settings: 0.66 uM peptide, 96 hours; helper none; relative to immX3AVD = 100
Description: Differentiation assays employed the C2C12 myoblastic cell line (ATCC, Manassas, VA) seeded at 2×10e5 cells per well in 96-well plates and cultured at 37 degrees C. in DMEM growth medium plus 10% fetal bovine serum and 1% penicillin/streptomycin. For differentiation, 10% fetal bovine serum was replaced with 2% horse serum. 0.66 uM peptide was then added, and incubation continued for an additional 96 hours. Plates with adherent cells were washed with PBS, lysed with Lytic-M buffer (Sigma Chemical Company, St. Louis, MO) and the lysates were assayed for creatine kinase using a kit purchased from Bioassay Systems (Cat. #ECPK-100, Hayward, CA). Effects were visually confirmed with microscopy tracking myotube formation. Results were expressed as units per milliliter relative to the control immX3AVD peptide, and p values were also calculated and shown relative to control immX3AVD peptide (** p<0.05 versus immX3AVD control; avg±SD).

Heparin binding (fluorescence counts) [2]: 97.2 ± 17.3 | Binding to Phosphatidylinositol [3]: — | Binding to PtdIns(3,4,5)P [PIP3] [3]: — | Binding to PtdIns(4)P [PIP1] [3]: — | Hyaluronate binding (fluorescence counts) [4]: 44.9 ± 14.1**
Molecule: N=C(N)NCCC[C@H](NC(=O)[C@H](CCCNC(=N)N)NC(=O)[C@H](CCC(N)=O)NC(=O)CNC(=O)[C@H](CCC(N)=O)NC(=O)[C@H](CO)NC(=O)[C@H](CO)NC(=O)[C@H](CCCNC(=N)N)NC(=O)[C@H](CS)NC(=O)[C@H](CCC(N)=O)NC(=O)[C@H](CCCNC(=N)N)NC(=O)[C@H](CCCCN)NC(=O)[C@H](CCCNC(=N)N)NC(=O)[C@H](Cc1ccc(O)cc1)NC(=O)[C@H](Cc1ccccc1)NC(=O)CNC(=O)[C@H](CCCNC(=N)N)NC(=O)[C@@H](N)Cc1c[nH]cn1)C(=O)NCC(=O)N1CCC[C@H]1C(=O)N[C@@H](CS)C(=O)N[C@@H](Cc1c[nH]c2ccccc12)C(=O)O [imm6] (H-HRGFYRKRQCRSSQGQRRGPCW-OH)
CD169+ (AU) [1]: 19.9 ± 2.3 AU

FITC-HMW-HA binding, CONTROL ([6]; pH 5.2): 66.6 ± 7.2** | FITC-HMW-HA binding, +cold HMW-HA ([6]; pH 5.2): 9.6 ± 6.5** | FITC-HMW-HA binding, +cold LMW-HA ([6]; pH 5.2): 76.8 ± 5.9 | FITC-HMW-HA binding, +cold PIP2 ([6]; pH 5.2): 52.8 ± 4.0** | FITC-HMW-HA binding, +cold HMW-HA ([6]; pH 7.4): 22.6 ± 8.8** | FITC-HMW-HA binding, +cold LMW-HA ([6]; pH 7.4): 94.9 ± 11.4 | FITC-HMW-HA binding, +cold PIP2 ([6]; pH 7.4): 53.7 ± 2.1** | FITC-HMW-HA binding, CONTROL ([6]; pH 7.4, peptide binding control = 100): 100.0 ± 7.6 | Heparin binding (fluorescence counts) [2]: 68.7 ± 26.2 | Hyaluronate binding (fluorescence counts) [4]: 113.9 ± 15.7
Molecule: RKGFYKRKQCKPSRGRKRGICWAVD [immX5AVD]
CD169+ (AU) [1]: 100.9 ± 3.5 AU | CCL22 [1]: 228.6 ± 8.1 pg/mL | FoxP3 (AU) [7]: 14.8 ± 4.3** AU | CCL22 (pg/ml) ([7]; supernatant): 58.7 ± 2.7** pg/ml | IL-10 (pg/ml) ([7]; supernatant): 870 ± 8.2** pg/ml | TGFb (pg/ml) ([7]; supernatant): 52.8 ± 7.4** pg/ml

Heparin binding (fluorescence counts) [2]: 7.3 ± 17.1 | Hyaluronate binding (fluorescence counts) [4]: 61.1 ± 34.1
Molecule: RNGNFHPKQCHPALDGQRGKCWAVD [immX4AVD]
CD169+ (AU) [1]: 1.0 ± 0.3 AU

Heparin binding (fluorescence counts) [2]: 55.5 ± 5.7** | Hyaluronate binding (fluorescence counts) [4]: 104.2 ± 14.7
Molecule: KKGFYKKKQCRPSKGRKRGFCW(dA)(dV)(dD) (KKGFYKKKQCRPSKGRKRGFCW[dA][dV][dD]; cysteine pairing not given here) [immX3dAdVdD]
CD169+ (AU) [1]: 183.3 ± 6.4 AU | Clec12A(AU) [1]: 106.6 ± 5.2 AU | Creatine Kinase Act. [8]: 132.8 ± 5.2** units per milliliter

Heparin binding (fluorescence counts) [2]: 56.0 ± 7.3** | Hyaluronate binding (fluorescence counts) [4]: 101.9 ± 16.4
Molecule: SLNPEWNETKGFYKKKQCRPSKGRKRGFCW(dA)(dV)(dD) (SLNPEWNETKGFYKKKQCRPSKGRKRGFCW[dA][dV][dD]; cysteine pairing not given here) [immX3K1dAdVdD]
CD169+ (AU) [1]: 249.3 ± 13.9 AU | Clec12A(AU) [1]: 321.9 ± 25.6 AU | CCL22 [1]: 135.8 ± 24.2 pg/mL

Heparin binding (fluorescence counts) [2]: 27.4 ± 22.9 | Binding to Phosphatidylinositol [3]: — | Binding to PtdIns(3,4,5)P [PIP3] [3]: — | Binding to PtdIns(4)P [PIP1] [3]: — | Binding to PtdIns(4,5)P [PIP2] [3]: — | Hyaluronate binding (fluorescence counts) [4]: 3.1 ± 9.8
Molecule: CSCC[C@H](NC(=O)[C@H](CCCCN)NC(=O)[C@H](CS)NC(=O)[C@H](CCC(N)=O)NC(=O)[C@H](CCCCN)NC(=O)[C@H](CC(C)C)NC(=O)[C@H](CC(N)=O)NC(=O)[C@H](Cc1ccc(O)cc1)NC(=O)[C@H](CC(C)C)NC(=O)CNC(=O)[C@H](Cc1c[nH]cn1)NC(=O)[C@@H](N)CCCCN)C(=O)N[C@@H](CO)C(=O)N[C@@H](CC(C)C)C(=O)N[C@@H](CC(N)=O)C(=O)NCC(=O)N[C@@H](CCC(N)=O)C(=O)N[C@@H](CCCNC(=N)N)C(=O)NCC(=O)N[C@@H](CCC(=O)O)C(=O)N[C@@H](CS)C(=O)N[C@@H](Cc1c[nH]c2ccccc12)C(=O)O [imm2]
CD169+ (AU) [1]: 3.0 ± 0.5 AU

More lines, now with the values behind:

Molecule: AFNSYELGSKGFYKKKQCRPSKGRKRGFCW [imm3K9]
COL1 (Collagen-1A1 immunoreactivity in supernatant) [5]: 155**

Molecule: FNSYELGSLKKGFYKKKQCRPSKGRKRGFCW [imm3K8]
COL1 (Collagen-1A1 immunoreactivity in supernatant) [5]: 98

Molecule: KKGFYKKKQCRPSKGRKRGFCW(dS)(dV)(dD) (KKGFYKKKQCRPSKGRKRGFCW[dS][dV][dD]; cysteine pairing not given here) [immX3dSdVdD]
CD169+ (AU) [1]: 145.7 ± 9.3 AU | FoxP3 (AU) [7]: 176.6 ± 8.0** AU | CCL22 ([7]; supernatant): 77.8 ± 2.0 pg/mL | IL-10 ([7]; supernatant): 1534 ± 176.4 pg/mL | TGFb ([7]; supernatant): 87.6 ± 10.7 pg/mL | Creatine Kinase Act. [8]: 155.6 ± 14.1** units per milliliter

Molecule: AFNSYELGSKKGFYKKKQCRPSKGRKRGFCW [imm3K9.1]
COL1 (Collagen-1A1 immunoreactivity in supernatant) [5]: 156**

Molecule: AFNSYELGSKGFYKKKQCRPSKGRKRGFCWAVDKY [imm3K9c]
COL1 (Collagen-1A1 immunoreactivity in supernatant) [5]: 158**
